{"source": "patent US7528226B2", "about": "“TGFβ1-inhibitor peptides” (Rojecto de Biomedicina Cima S.L., priority 1998, dated 2009)", "test_system": "type I, II and III cell receptors of TGFβ1", "test": "Affinity labelling: inhibition of binding of 125I-TGFβ1 to its cell receptors on MV-1-Lu cells", "design": "species or system human", "experimental": "The MV-1-Lu cells were removed from the culture flasks incubating them at 37° C. for 10 minutes, with 10 ml of solution 1 (128 mM NaCl, 5 mM KCl, 25 mM 4-(2-hydroxyethyl)-1-piperazine ethanesulphonate at pH 7.5, 5 mM glucose and 1 mM EDTA). The cells thus removed were resuspended in solution 2 (128 Mm NaCl, 5 mM KCl, 50 mM 4-(2-hydroxyethyl)-1-piperazine ethanesulphonate at pH 7.5, 1.2 mM CaCl2, 1.2 mM MgSO4 and 5 mg/ml BSA) and were collected by centrifugation at 1000×g for 5 minutes. After centrifugation the cells were resuspended in solution 2 at a concentration of 10^6 cells/ml.\nFrom this cell suspension, 0.5 ml aliquots were made in 24-well plates (Greiner GmbH, Frickenhausen, Germany), the peptides were added, in 50 μl of a 0.8 mg/ml solution, then this was incubated for 2 hours at 4° C. with stirring. Next, ^125I-TGFβ1 (2 μCi) was added to a final concentration of 277.2 pM (^125I-TGFβ1 human recombinant 800-2200 Ci/mmol, Amersham Life Science, Buckinghamshire, UK) and this was incubated for a further two hours at 4° C. with stirring.\nAfter incubation, the cells were transferred to a centrifuge tube and were centrifuged cold at 12,000×g for 1 minute. […]", "note": "No end group written: not given here."}
{"sequence": "TSLDASIIWAMMQN [P144, ThrSerLeuAspAlaSerIleIleTrpAlaMetMetGlnAsn]", "values": [{"measurement": "inhibition of the binding of 125I-TGFβ1 to the cell receptors", "setting": "preincubation with peptide at 10^6 times the molar concentration of 125I-TGFβ1", "result": "inhibition of the binding"}, {"measurement": "concentration at which the peptide lost its activity", "setting": "titration of the peptide, affinity labelling", "result": "2×10^5 times the molar concentration of ^125I-TGFβ1"}]}
